From paper PMC9231089, “Sorafenib Chemosensitization by Caryophyllane Sesquiterpenes in Liver, Biliary, and Pancreatic Cancer Cells: The Role of STAT3/ABC Transporter Axis” (Pharmaceutics, 2022)
Where a name gives a salt, the structure may show the parent alone.

Columns and labels:
Type in all cases: cell-based, human
Bx-PC3 [1] = experiment: Combination assay with sorafenib (MTT), Bx-PC3;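 as to increase of sorafenib cytotoxicity in combination: percent increase of sorafenib cell viability inhibition versus sorafenib alone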
Description: (§1) Suitable vehicle controls were also included.
(§2) The type of interaction (synergistic, additive, or antagonistic) among sorafenib and test substances or positive controls was evaluated by measuring the reversal ratio value (RR), combination index (CI), and isobolographic analysis (IB), as previously described.

HepG2 [2] = experiment: Combination assay with sorafenib (MTT), HepG2; conditions: for increase of sorafenib cytotoxicity in combination: verapamil/MK571 1 µg/mL or sesquiterpenes 10 µg/mL;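 as to increase of sorafenib cytotoxicity in combination: percent increase of sorafenib cell viability inhibition versus sorafenib alone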
Description: as §1, §2

Mz-ChA-1 [3] = experiment: Combination assay with sorafenib (MTT), Mz-ChA-1;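 as to increase of sorafenib cytotoxicity in combination: percent increase of sorafenib cell viability inhibition versus sorafenib alone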
Description: as §1, §2

HepG2 [4] = experiment: MTT cytotoxicity assay, substances alone, HepG2; conditions: HepG2
Description: as §1
(§3) The effect of the treatments on cell viability was measured by the MTT assay as previously described. A higher than 30% reduction of cell viability was considered as a significant cytotoxic effect.

phospho(Tyr705)-STAT3 = experiment: Western blotting of STAT3 phosphorylation in Bx-PC3 cells; conditions: for increase of STAT3 phosphorylation at tyrosine 705: substance alone, sorafenib and sesquiterpenes 10 μg/mL, verapamil/MK571 1 μg/mL, normalized to total STAT3; for reduction of phospho(Tyr705)-STAT3 with respect to sorafenib: substance in combination with sorafenib 10 μg/mL
Description: as §1
Confluent cells were seeded in 6-well plates (5 × 10^5 cells/well), treated as described above, then harvested by centrifugation and washed in PBS. After lysis with a suitable buffer, the Western blotting analysis was carried out, according to previously published methods. […] The levels of phospho(Tyr705)-STAT3 were normalized against total STAT3 ones.

[5] = test system: noncancerous H69 cholangiocytes; experiment: Combination assay with sorafenib (MTT), tolerability in H69; conditions: combination with 1 µg/mL and 10 µg/mL sorafenib, verapamil/MK571 1 µg/mL
Description: as §1, §2

[6] = test system: noncancerous H69 cholangiocytes; experiment: MTT cytotoxicity assay (tolerability), substances alone, H69
Description: as §1, §3

Bx-PC3 cells = experiment: Wound healing assay (cell migration); conditions: for increase of wound area: substance in combination with sorafenib 10 µg/mL, reference and time not stated
Description: To evaluate the effect of caryophyllane sesquiterpenes, both alone and in combination with sorafenib, on the cell migration rate, the wound healing assay was performed. Bx-PC3 cells were seeded in 24-well plate at a density of 2.5 × 10^5 cells/well. After 24 h, the wound was created by scratching the well bottom with a 100 μL pipette tip, then the cells were treated under the scheduled conditions and images were captured at 0, 4, and 72 h using a Cytation 1 Cell Imaging Multi-Mode Reader. […] Results were expressed as wound area percentage with respect to that of the same well at zero time. The positive controls were also included.

Mz-ChA-1 [7] = experiment: MTT cytotoxicity assay, substances alone, Mz-ChA-1; conditions: Mz-ChA-1
Description: as §1, §3

MRP2 = experiment: Immunofluorescence analysis in Bx-PC3 cells, MRP2; conditions: substance alone
Description: as §1
The analysis was performed according to previously published methods. Confluent cells were seeded in 24-well plates (2 × 10^4 cells/well), allowed to adhere overnight, then treated as described above. After treatment, cells were fixed in pure methanol and washed with 4% bovine serum albumin (BSA) and PBS + Tween 20 (PBS-T) for 1 h. […] The expression and localization of Pgp, MRP1, and MRP2 pumps into cells were analyzed by using a Cytation 1 Cell Imaging Multimode Reader (Biotech, USA).

Bx-PC3 [8] = experiment: MTT cytotoxicity assay, substances alone, Bx-PC3
Description: as §1, §3

## CN(C)C(=O)CCSC(SCCC(=O)O)c1cccc(/C=C/c2ccc3ccc(Cl)cc3n2)c1 (stereo not drawn) [MK571, reference compound]
Bx-PC3 [1]
  reduction of sorafenib IC50 in the presence of the substance: ~3.9 fold
Bx-PC3 [1]; sorafenib 1 µg/mL, verapamil/MK571 1 µg/mL or sesquiterpenes 10 µg/mL
  increase of sorafenib cytotoxicity in combination: ~10%
Bx-PC3 [1]; sorafenib 10 µg/mL, verapamil/MK571 1 µg/mL
  increase of sorafenib cytotoxicity in combination: ~47%
HepG2 [2]
  reduction of sorafenib IC50 in the presence of the substance: ~6 fold
HepG2 [2]; sorafenib 1 µg/mL
  increase of sorafenib cytotoxicity in combination: ~23%
HepG2 [2]; sorafenib 10 µg/mL
  increase of sorafenib cytotoxicity in combination: ~40%
Mz-ChA-1 [3]
  reduction of sorafenib IC50 in the presence of the substance: 1.7 fold
Mz-ChA-1 [3]; sorafenib 1 µg/mL, verapamil/MK571 1 µg/mL
  increase of sorafenib cytotoxicity in combination: 3%
Mz-ChA-1 [3]; sorafenib 10 µg/mL, verapamil/MK571 1 µg/mL or sesquiterpenes 10 µg/mL
  increase of sorafenib cytotoxicity in combination: 20%
HepG2 [4]
  IC50 higher than that of sorafenib: comparable
HepG2 [4]; 50 µg/mL
  inhibition of cell viability: 50%
phospho(Tyr705)-STAT3
  increase of STAT3 phosphorylation at tyrosine 705: 1.5 fold
  reduction of phospho(Tyr705)-STAT3 with respect to sorafenib: 3.7 fold
[5]
  reduction of cell viability with respect to sorafenib alone: ~15%
[6]; H69 vs Mz-ChA-1
  higher cytotoxicity in normal H69 cells than in cancerous Mz-ChA-1 cholangiocytes (IC50 comparison): ~2.9 fold
[6]; Homo sapiens, H69 noncancerous cholangiocytes, substance alone, 4 h exposure + 72 h recovery, read-out: IC50 (CL)
  CC50: 32.6 µg/mL
Bx-PC3 cells; substance alone, sesquiterpenes 10 µg/mL, verapamil/MK571 1 µg/mL
  wound area / cell migration after 72 h: almost complete closure of wound area
Bx-PC3 cells
  increase of wound area: approximately 3.7 fold
Mz-ChA-1 [7]; Homo sapiens, substance alone, 4 h exposure + 72 h recovery
  IC50: 94.6 µg/mL
Mz-ChA-1 [7]
  IC50 higher than that of sorafenib: 1.2 fold
Mz-ChA-1 [7]; 50 µg/mL
  inhibition of cell viability: approximately 15%
Mz-ChA-1 [7]; 250 µg/mL
  inhibition of cell viability: ~90%
MRP2
  effect on MRP2 transporter expression (immunofluorescence): significantly lowered
Bx-PC3 [8]
  IC50 higher than that of sorafenib: 2.5 fold
Bx-PC3 [8]; 50 µg/mL
  inhibition of cell viability: ~33%
Bx-PC3 [8]; 250 µg/mL
  inhibition of cell viability: ~90%
Bx-PC3 [8]; Homo sapiens, BXPC-3, substance alone, 4 h exposure + 72 h recovery
  IC50: 78.5 µg/mL

## COc1ccc(CCN(C)CCCC(C#N)(c2ccc(OC)c(OC)c2)C(C)C)cc1OC (stereo not drawn) [Verapamil, verapamil hydrochloride, reference compound]
Bx-PC3 [1]
  reduction of sorafenib IC50 in the presence of the substance: ~2 fold
HepG2 [2]
  reduction of sorafenib IC50 in the presence of the substance: approximately 3 fold
Mz-ChA-1 [3]
  reduction of sorafenib IC50 in the presence of the substance: 1.5 fold
phospho(Tyr705)-STAT3
  increase of STAT3 phosphorylation at tyrosine 705: 1.1 fold
  reduction of phospho(Tyr705)-STAT3 with respect to sorafenib: lower reduction
Bx-PC3 cells
  increase of wound area: lowered the anti-migration effect of sorafenib
